Laboratory results from patent US12484580B2, “Use of alkoxypyrazoles as nitrification inhibitors” (BASF SE, priority 2018, dated 2025).

Tests used:
[1] = volatility of prior-art nitrification inhibitor; type: physicochemical; settings: stated as disadvantageous for long-term applications
[2] = test system: nitrification (soil microbial biomass); assay: inhibition of nitrification in soil incubation test (ammonium and nitrate content after 0 and 14 days); settings: compound at 1% of nitrogen N, 100 g soil, 10 mg ammoniumsulfate-N, 20° C., best obtained NI value
Description: The compounds of the invention have been tested as follows in terms of the inhibition of nitrification: 100 g soil is filled into 500 ml plastic bottles (e.g. soil sampled from the field) and is moistened to 50% water holding capacity. The soil is incubated at 20° C. for two weeks to activate the microbial biomass. 1 ml test solution, containing the compound in the appropriate concentration (usually 0.3 or 1% of nitrogen N), or DMSO and 10 mg nitrogen in the form of ammoniumsulfate-N is added to the soil and everything mixed well. Bottles are capped but loosely to allow air exchange. The bottles are then incubated at 20° C. for 0 and 14 days. For analysis, 300 ml of a 1% K2SO4-solution is added to the bottle containing the soil and shaken for 2 hours in a horizontal shaker at 150 rpm. Then the whole solution is filtered through a filter (Macherey-Nagel Filter MN 807 ¼). Ammonium and nitrate content is then analyzed in the filtrate in an autoanalyzer at 550 nm (Merck, AA11). The inhibition (NI @ a specified concentration) is calculated as follows: [formula]

volatility [1] | SMILES | NI* @ 1% [2]
high volatility | CCOc1cc(C)[nH]n1 [3-ethoxy-5-methylpyrazole] | 
 | CCOc1[nH]nc(C)c1Cl [compound 9] | 22.0
